{"source": "ChEMBL document CHEMBL5214920", "about": "“Emerging impact of triazoles as anti-tubercular agent” (Eur J Med Chem, 2022)"}
{"system": "Mycobacterium tuberculosis", "test": "Antitubercular activity against multi-drug-resistant Mycobacterium tuberculosis assessed as bacterial growth inhibition measured after 7 days by direct susceptibility assay", "assay_type": "functional", "settings": "168 h, time 7 day", "units": {"MIC": "µg/mL"}}
{"smiles": "COc1c(N2CCNCC2)c(F)cc2c(=O)c(C(=O)O)cn(C3CC3)c12", "MIC": 2}
{"smiles": "CO/N=C1/C(=O)C(CCOCCOCCOCCn2cc(CN3C(=O)/C(=N/OC)c4cc(F)ccc43)nn2)c2ccccc21", "note": "(configuration not stated)", "MIC": 64}
{"smiles": "CO[C@H]1/C=C/O[C@@]2(C)Oc3c(C)c(O)c4c(O)c(c(/C=N/N5CCN(C)CC5)c(O)c4c3C2=O)NC(=O)/C(C)=C\\C=C\\[C@H](C)[C@H](O)[C@@H](C)[C@@H](O)[C@@H](C)[C@H](OC(C)=O)[C@@H]1C", "note": "[RIFAMPIN]", "MIC": 64}
{"smiles": "NNC(=O)c1ccncc1", "note": "[ISONIAZID]", "MIC": 512}
{"smiles": "O=C(O)c1cn(C2CC2)c2cc(N3CCNCC3)c(F)cc2c1=O", "note": "[CIPROFLOXACIN]", "MIC": 4}
{"smiles": "O=C(O)c1cn(C2CC2)c2cc(N3CCN(Cc4cn(CCN5C(=O)Cc6ccccc65)nn4)CC3)c(F)cc2c1=O", "MIC": 0.25}
{"system": "Mycobacterium tuberculosis", "test": "Potency index, ratio of isoniazid MIC to test compound MIC for antitubercular activity against multi-drug-resistant Mycobacterium tuberculosis", "assay_type": "functional", "settings": "not given"}
{"smiles": "CO/N=C1/C(=O)C(CCOCCOCCOCCn2cc(CN3C(=O)/C(=N/OC)c4cc(F)ccc43)nn2)c2ccccc21", "note": "(configuration not stated)", "Ratio": 8}
